Four compounds from patent US9434728B1, “Nitrogen containing compounds and their use” (WOCKHARDT LIMITED, priority 2013, dated 2016) can be followed below.

Type in all cases: cell-based
One assay concerns E. coli (7MP). The assay is described as follows: Antibacterial activity, agar dilution MIC (CLSI). Conditions: Escherichia coli, ESBL SHV, CMY. On the procedure:
(§1) The biological activity of representative compounds according to the invention against various bacterial strains was investigated. In a typical study, overnight grown bacterial cultures were diluted appropriately and inoculated on the agar media containing doubling dilutions of the test compounds. Observations for growth or no growth was performed after 16-20 hours of incubation at 35±2° C. in the ambient air. The overall procedure was performed as per Clinical and Laboratory Standards Institute (CLSI) recommendations (Clinical and Laboratory Standards Institute (CLSI), Performance Standards for Antimicrobial Susceptibility Testing, 20th Informational Supplement, M 100-S20, Volume 30, No. 1, 2010). […] The Compound (XI), which is the free zwitterionic form of Compound (X), was also studied for the antibacterial activity profile.
In general terms: Agar dilution tests growth on a series of plates holding different concentrations.

A further assay has as its system E. coli (NCTC 13352). The assay is described as follows: Antibacterial activity, agar dilution MIC (CLSI). Conditions: Escherichia coli, NCTC13352, ESBL TEM 10. On the procedure: as §1
Another assay concerns E. coli (NCTC 13353). The assay is described as follows: Antibacterial activity, agar dilution MIC (CLSI). The following applies: Escherichia coli, NCTC13353, ESBL CTXM-15. On the procedure: as §1
A further assay has as its system K. pneumoniae (H521). The assay is described as follows: Antibacterial activity, agar dilution MIC (CLSI). Conditions: Klebsiella pneumoniae, ESBL KPC. As to the method: as §1
The next assay relates to K. pneumoniae (S48). The assay is described as follows: Antibacterial activity, agar dilution MIC (CLSI). Conditions: Klebsiella pneumoniae, ESBL NDM, SHV. As to the method: as §1
For a further assay, the system named is P. aeruginosa (MBL18). The assay is described as follows: Antibacterial activity, agar dilution MIC (CLSI). Conditions: Pseudomonas aeruginosa, ESBL VIM. On the procedure:
as §1

The subject of a further assay is E. coli H483. As to the kind of experiment: Antibacterial activity in combination with Ceftazidime, agar dilution MIC. Conditions: Escherichia coli; agent alone; E. coli H483, ESBL CMY-2. On the procedure:
as §1
(§2) The antibacterial activity of the Compound (XI) was also studied in combination with other beta-lactam antibacterial agents. […] The antibacterial activity of the combination of Compound (XI) (4 μg/ml) and Ceftazidime was compared with (i) combination of Cetftazidime and Avibactam (4 μg/ml); and (ii) Imipenem alone.

The test system of assay [1] is K. pneumoniae ATCC 700603. Described as above. The following applies: Klebsiella pneumoniae, ATCC700603; agent alone; K. pneumoniae ATCC 700603, ESBL SHV-18. As to the method:
as §1, §2

In a further assay the test system is K. pneumoniae J101. The description is as above. Conditions: Klebsiella pneumoniae; agent alone; K. pneumoniae J101, ESBL TEM-1, SHV-12, OMP. As to the method:
as §1, §2

In a further assay the test system is K. pneumoniae J102. Described as above. Conditions: Klebsiella pneumoniae; agent alone; K. pneumoniae J102, ESBL TEM-1, SHV-5, OMP. On the procedure: as §1, §2
In assay [2] the test system is resistant ESBL strains of K. pneumoniae, E. coli and P. aeruginosa. The assay is described as follows: Antibacterial activity profile. As to the method: as §1

The structures appear in SMILES notation. Values after ≈ are worked out from the molar mass of the structure shown.

In general, MIC refers to the smallest concentration in the dilution series that meets the test's criterion for growth inhibition. On to `CO/N=C(\C(=O)N[C@@H]1C(=O)N2C(C(=O)[O-])=C(C[N+]3(C)CCCC3)CS[C@H]12)c1csc(N)n1` [Cefepime], for which the MIC was 16 µg/mL (≈ 33.3 µM) against E. coli (7MP); 2 µg/mL (≈ 4.16 µM) against E. coli (NCTC 13352); greater than 32 µg/mL against E. coli (NCTC 13353); greater than 32 µg/mL with K. pneumoniae (H521); greater than 32 µg/mL in the assay with K. pneumoniae (S48); greater than 32 µg/mL against P. aeruginosa (MBL18).
For `CC(C)(O/N=C(\C(=O)N[C@@H]1C(=O)N2C(C(=O)[O-])=C(C[n+]3ccccc3)CS[C@H]12)c1csc(N)n1)C(=O)O` [Ceftazidime], the minimum inhibitory concentration (MIC) against E. coli (7MP), in the assay with E. coli (NCTC 13352), in the assay with E. coli (NCTC 13353), against K. pneumoniae (H521), in the assay on K. pneumoniae (S48) and with P. aeruginosa (MBL18) was greater than 32 µg/mL each time. The MIC was greater than 32 µg/mL in the assay with E. coli H483, 16 µg/mL in assay [1], greater than 32 µg/mL in the assay on K. pneumoniae J101 and greater than 32 µg/mL in the assay on K. pneumoniae J102.
Regarding `NC[C@@H]1CC[C@@H]2CN1C(=O)N2OS(=O)(=O)O` [Compound (XI), (2S, 5R)-6-sulfooxy-2-(aminomethyl)-7-oxo-1,6-diaza-bicyclo[3.2.1]octane], the MIC with E. coli (7MP) was 4 µg/mL (≈ 15.9 µM); in the assay with E. coli (NCTC 13352), 2 µg/mL (≈ 7.96 µM); against E. coli (NCTC 13353), 1 µg/mL (≈ 3.98 µM); against K. pneumoniae (H521), 1 µg/mL (≈ 3.98 µM); against K. pneumoniae (S48), 1 µg/mL (≈ 3.98 µM); against P. aeruginosa (MBL18), 8 µg/mL (≈ 31.8 µM). Moreover, the “antibacterial activity (in words)” value in assay [2] was “good antibacterial activity”.
`C[C@@H](O)[C@H]1C(=O)N2C(C(=O)O)=C(SCCN=CN)C[C@H]12` [Imipenem]: the MIC amounted to 1 µg/mL (≈ 3.34 µM) with E. coli (7MP); 0.25 µg/mL (≈ 0.835 µM) with E. coli (NCTC 13352); 0.25 µg/mL (≈ 0.835 µM) in the assay with E. coli (NCTC 13353); 16 µg/mL (≈ 53.4 µM) in the assay on K. pneumoniae (H521); 16 µg/mL (≈ 53.4 µM) in the assay with K. pneumoniae (S48); 16 µg/mL (≈ 53.4 µM) with P. aeruginosa (MBL18). In addition, the MIC amounted to 0.25 µg/mL in the assay with E. coli H483, 0.12 µg/mL in [1], 2 µg/mL with K. pneumoniae J101 and 8 µg/mL with K. pneumoniae J102.
